14 compounds from PubChem BioAssay (NCI) can be followed below.

Experiment in all cases: inhibition of tumour cell growth, NCI panel, 48 h
For assay [1], the system named is OVCAR-4 ovarian.
For assay [2], the system named is SK-MEL-28 melanoma.
Assay [3] concerns ACHN renal.
The test system of assay [4] is A549 NSCLC.
The test system of assay [5] is SR leukemia.
Assay [6] deals with IGROV1 ovarian.
For assay [7], the system named is M14 melanoma.
Assay [8] concerns COLO 205 colon.
For assay [9], the system named is HT29 colon.
In assay [10] the test system is HL-60(TB) leukemia.
For assay [11], the system named is MDA-MB-231 breast.

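Where inhibition never reached the appropriate level, the endpoint shown equals the highest concentration tested. Otherwise, values were interpolated linearly from a five-concentration, 48-hour dose response in 96-well plates. Definition used: TGI = concentration required for complete inhibition of growth.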

Take `Cc1cc(Cl)ccc1NC(=O)C(=O)Cc1occc(=O)c1O`: the TGI in [1], in assay [2], in assay [3], in assay [4], in assay [5] and in [6] was greater than 100 µM in each case. Further, the TGI in assay [7], in assay [8], in [9] and in [10] was greater than 100 µM throughout.

`N#Cc1c(N2CCOCC2)ncn(-c2ccc(Cl)cc2)c1=O`: the TGI in assay [2], in assay [3], in [4], in assay [5], in [6] and in assay [7] was greater than 100 µM in each case. Besides, the TGI in assay [8] and in [10] was greater than 100 µM each time.

Take `COC1C(OC(N)=O)C(O)C(Oc2ccc3c(O)c(NC(=O)c4ccc(O)c(CC=C(C)C)c4)c(=O)oc3c2C)OC1(C)C` (configuration not stated): the TGI in assay [11], in assay [2], in [3], in assay [4], in assay [5] and in assay [6] was greater than 100 µM throughout. Further, the TGI in [7], in [8] and in [9] was greater than 100 µM in each case.

Consider `CN(C)C(=O)Oc1ccc(C(=S)Nc2ccccc2)cc1Br`, for which the TGI in [1] is greater than 100 µM; in [2] it was greater than 100 µM; in assay [3] it was greater than 100 µM; in assay [4], greater than 100 µM; in assay [5], 63.3 µM; in [6], 48.9 µM. Moreover, the TGI came to 39.8 µM in assay [7], 55.3 µM in assay [8], 65.1 µM in assay [9] and 39.6 µM in [10].

As for `CC(=O)O/N=C/c1cc2c(cc1Br)OCO2`, the TGI in [2], in [3], in assay [4], in [5], in assay [6] and in assay [8] was greater than 349 µM in each case. The TGI in [9] and in [10] was greater than 349 µM each time.

As for `c1ccc(CSC(SCc2ccccc2)c2ccc3c(c2)OCO3)cc1`, the TGI in assay [1], in assay [11], in [2], in assay [3], in assay [4] and in assay [6] was greater than 10 µM in each case. Besides, the TGI in [7], in [8], in [9] and in assay [10] was greater than 10 µM each time.

For the compound `Cn1nc(C(=O)N2CC(CCl)c3c2cc([N+](=O)[O-])c2ccccc32)cc1NC(=O)Nc1cc(C(=O)N2CC(CCl)c3c2cc([N+](=O)[O-])c2ccccc32)nn1C` (configuration not stated), the TGI in assay [1], in assay [11], in assay [2], in assay [3], in assay [4] and in assay [7] was greater than 100 µM in each case. In [8], this compound returned a TGI greater than 100 µM.

For `Cc1ccc(Nc2cn(COCc3ccccc3)c(=O)[nH]c2=O)cc1`, the TGI in assay [1], in assay [2], in [3], in assay [4], in assay [5] and in [6] was greater than 100 µM in each case. For the same compound, the TGI in [7], in assay [8], in [9] and in assay [10] was greater than 100 µM in each case.

Regarding `O=C1c2ccccc2C(=O)c2c(O)c(NCCNCCO)cc(O)c21`, the TGI in [1] is 15.7 µM; in [2], 16.6 µM; in [3], 8.93 µM; in assay [4], 13.5 µM; in assay [5] it was 9.04 µM; in assay [6], 6.62 µM. In addition, the TGI worked out at 16 µM in [7], 11.5 µM in assay [9] and 14.1 µM in assay [10].

On to `CC(C)c1cccc(C(C)C)c1NC(=O)C(=O)C1SC(=S)NC1=O` (configuration not stated), for which the TGI in assay [1], in assay [2], in [3], in [4], in assay [5] and in assay [6] was greater than 100 µM each time. In addition, the TGI in assay [7], in assay [8], in assay [9] and in [10] was greater than 100 µM throughout.

Regarding `COc1ccc(/C=C(\Cl)c2ccc(OC)cc2)cc1`, the TGI in [1], in assay [2], in assay [3], in assay [4], in assay [5] and in assay [7] was greater than 100 µM each time. In addition, the TGI in assay [8] and in assay [10] was greater than 100 µM in each case.

For the compound `CC(=O)C1C(=O)C(=O)N(c2ccc(Br)cc2)C1=O` (configuration not stated), the TGI in [1], in assay [11], in [2], in [3], in [4] and in assay [6] was greater than 100 µM in each case. The TGI in [7], in assay [8], in assay [9] and in [10] was greater than 100 µM each time.

As to `CC1=C(C(=O)NC(C)(C)C)CC(C(=O)NC(C)(C)C)C(C)N1` (configuration not stated), the TGI in [1], in assay [11], in assay [3], in assay [4], in assay [6] and in assay [7] was greater than 100 µM throughout. The TGI in assay [8], in assay [9] and in [10] was greater than 100 µM each time.

Regarding `Cc1nc2nn(C)cc2c(=O)n1/N=C/c1ccccc1`, the TGI in assay [1], in assay [2], in [3], in assay [4], in assay [5] and in assay [6] was greater than 100 µM each time. The TGI in assay [8], in assay [9] and in assay [10] was greater than 100 µM throughout.
